Here are results for ten compounds from US20250296971A1, “GASTRIC INHIBITORY PEPTIDE RECEPTOR LIGANDS” (priority 2021, published 2025).

*1 amine or outer side, *2 acyl side, *3 side chain or, on linkers, in order; H or OH if unused. Where a SMILES comes first, the peptide text is derived from it. Bridges are numbered along the chain shown (N, C = ends). [ ]: non-standard residue; d: D form. The star is where a group is joined. X16 = NC(=O)[C@H](CCCCNC(=O)CN1CCN2CCN3CCN(CC1)CC(=O)[O][Lu]([O]C(=O)C2)[O]C(=O)C3)NC(=O)CCC(=O)NCCCOCCOCCOCCCN*; X11 = O=C(CN1CCN2CCN3CCN(CC1)CC(=O)[O][In]([O]C(=O)C2)[O]C(=O)C3)NCCCOCCOCCOCCCN*; X13 = O=C(CN1CCN2CCN3CCN(CC1)CC(=O)[O][Lu]([O]C(=O)C2)[O]C(=O)C3)NCCCOCCOCCOCCCN*; DOTA(Lu) = O=C1CN2CCN3CCN(CC(=O)*)CCN(CC2)CC(=O)[O][Lu]([O]1)[O]C(=O)C3; Trp(5-Cl) = N[C@@H](Cc1c[nH]c2ccc(Cl)cc12)C(=O)O; mXylylene = c1cc(C[*:1])cc(C[*:2])c1; X6 = c1cc(CSCCN[*:2])nc(C[*:1])c1; X7 = c1cc(CSCCN[*:2])cc(C[*:1])c1; Hyp = O=C(O)[C@@H]1C[C@@H](O)CN1; X1 = O=C(CN1CCC(N[*:1])CC1)[*:2]; Suc = O=C(CCC(=O)[*:2])[*:1]; αMeS = C[C@](N)(CO)C(=O)O; Thp = NC1(C(=O)O)CCOCC1; Aib = CC(C)(N)C(=O)O; Sar = CNCC(=O)O

In one assay the target is T1, GIPR (CHO-K1-hGIPR cells) (Homo sapiens, UniProt P48546).
T1 construct: host or cells: CHO-K1
T1 sequence (P48546 22-466): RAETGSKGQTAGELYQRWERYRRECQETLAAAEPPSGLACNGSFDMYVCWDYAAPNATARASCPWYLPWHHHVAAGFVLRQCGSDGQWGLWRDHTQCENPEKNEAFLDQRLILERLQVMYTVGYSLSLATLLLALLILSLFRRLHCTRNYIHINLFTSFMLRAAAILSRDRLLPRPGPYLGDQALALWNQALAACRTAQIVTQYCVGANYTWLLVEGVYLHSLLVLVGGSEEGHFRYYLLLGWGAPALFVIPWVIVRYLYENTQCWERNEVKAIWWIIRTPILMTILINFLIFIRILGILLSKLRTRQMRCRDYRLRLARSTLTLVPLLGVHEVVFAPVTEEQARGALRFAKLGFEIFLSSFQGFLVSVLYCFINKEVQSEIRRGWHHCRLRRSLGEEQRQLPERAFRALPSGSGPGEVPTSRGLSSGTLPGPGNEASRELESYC
Briefly: FACS binding assay. As to conditions: competition with 20 nM GIP-057, 4° C., 1 hour, read-out: pIC50 Category (converted). The gist of the method:
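Peptide binding read by flow cytometry as APC-channel median fluorescence, fitted with a four-parameter logistic to yield EC50 or IC50. Cells were hGIPR-transfected CHO-K1 in PBS with 1% FCS, detected with 1 μg/mL APC-streptavidin, 30 min on ice.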
In general terms: In flow cytometry, cells or beads pass a laser one at a time.
With `CC[C@H](C)[C@@H]1NC(=O)[C@H](CC(C)C)NC(=O)C2(CCOCC2)NC(=O)[C@@H](NC(=O)[C@@H](CC(C)C)NC(=O)[C@H](CCC(=O)O)NC(=O)[C@@H]2CCCN2C(=O)[C@H](Cc2c[nH]c3ccc(Cl)cc23)NC(=O)[C@H](Cc2c[nH]c3ccccc23)NC(=O)[C@H](CC(=O)O)NC(=O)CCC(=O)NCCCOCCOCCOCCCNC(=O)CN2CCN3CCN4CCN(CC2)CC(=O)[O][In]([O]C(=O)C3)[O]C(=O)C4)CSCc2cccc(c2)CSCCNC1=O` [GIP-150, InDOTA-Ttds-Asp-Trp-5Clw-Pro-Glu-leu-[Cys(3MeBn)-Thp-Leu-Ile-AET]] ({X11-Suc}-DW[Trp(5-Cl)]PE[dL]C[Thp]LI; linker 7-C via X7), the IC50 is less than 10 nM.
Consider `CC[C@H](C)[C@@H]1NC(=O)[C@H](CC(C)C)NC(=O)C(C)(C)NC(=O)[C@@H](NC(=O)[C@@H](CC(C)C)NC(=O)[C@H](CCC(=O)O)NC(=O)CN(C)C(=O)[C@H](Cc2c[nH]c3ccc(Cl)cc23)NC(=O)[C@H](Cc2c[nH]c3ccccc23)NC(=O)[C@H](CC(=O)O)NC(=O)CCC(=O)NCCCOCCOCCOCCCNC(=O)CN2CCN3CCN4CCN(CC2)CC(=O)[O][In]([O]C(=O)C3)[O]C(=O)C4)CSCc2cccc(c2)CSCCNC1=O` [GIP-152, InDOTA-Ttds-Asp-Trp-5Clw-Nmg-Glu-leu-[Cys(3MeBn)-Aib-Leu-Ile-AET]] ({X11-Suc}-DW[Trp(5-Cl)][Sar]E[dL]C[Aib]LI; linker 7-C via X7), for which the IC50 is less than 10 nM.
Still for that read-out and setting: to `CC[C@H](C)[C@@H]1NC(=O)[C@H](CC(C)C)NC(=O)C(C)(C)NC(=O)[C@@H](NC(=O)[C@@H](CC(C)C)NC(=O)[C@H](CCC(=O)O)NC(=O)[C@@H]2CCCN2C(=O)[C@H](Cc2c[nH]c3ccc(Cl)cc23)NC(=O)[C@H](Cc2c[nH]c3ccccc23)NC(=O)[C@H](CC(=O)O)NC(=O)CCC(=O)NCCCOCCOCCOCCCNC(=O)CN2CCN3CCN4CCN(CC2)CC(=O)[O][In]([O]C(=O)C3)[O]C(=O)C4)CSCc2cccc(n2)CSCCNC1=O` [GIP-154, InDOTA-Ttds-Asp-Trp-5Clw-Pro-Glu-leu-[Cys(2Lut)-Aib-Leu-Ile-AET]] ({X11-Suc}-DW[Trp(5-Cl)]PE[dL]C[Aib]LI; linker 7-C via X6) belongs less than 10 nM.

The assay is the same for the next values; noted with them: pIC50 Category, competition with 20 nM GIP-057, 4° C., 1 hour.
With `CC[C@H](C)[C@@H]1NC(=O)[C@H](CC(C)C)NC(=O)C(C)(C)NC(=O)[C@@H](NC(=O)[C@@H](CC(C)C)NC(=O)[C@H](CCC(=O)O)NC(=O)[C@@H]2CCCN2C(=O)[C@H](Cc2c[nH]c3ccc(Cl)cc23)NC(=O)[C@H](Cc2c[nH]c3ccccc23)NC(=O)[C@H](CC(=O)O)NC(C)=O)CSCc2cccc(c2)CSC[C@@H](C(=O)NCCCOCCOCCOCCCNC(=O)CCC(=O)N[C@@H](CCCCNC(=O)CN2CCN3CCN4CCN(CC2)CC(=O)[O][Lu]([O]C(=O)C3)[O]C(=O)C4)C(N)=O)NC1=O` [GIP-156, Ac-Asp-Trp-5Clw-Pro-Glu-leu-[Cys(3MeBn)-Aib-Leu-Ile-Cys]-Ttds-Lys(LuDOTA)-NH2] (Ac-DW[Trp(5-Cl)]PE[dL]C[Aib]LIC-X16; linker 7-11 via mXylylene), the IC50 is less than 10 nM.
Turning to `CC[C@H](C)[C@@H]1NC(=O)[C@H](CC(C)C)NC(=O)[C@](C)(CO)NC(=O)[C@@H](NC(=O)[C@@H](CC(C)C)NC(=O)[C@H](CCC(=O)O)NC(=O)[C@@H]2CCCN2C(=O)[C@H](Cc2c[nH]c3ccc(Cl)cc23)NC(=O)[C@H](Cc2c[nH]c3ccccc23)NC(=O)[C@H](CC(=O)O)NC(=O)CCC(=O)NCCCOCCOCCOCCCNC(=O)CN2CCN3CCN4CCN(CC2)CC(=O)[O][Lu]([O]C(=O)C3)[O]C(=O)C4)CSCc2cccc(c2)CSCCNC1=O` [GIP-157, LuDOTA-Ttds-Asp-Trp-5Clw-Pro-Glu-leu-[Cys(3MeBn)-Ams-Leu-Ile-AET]] ({X13-Suc}-DW[Trp(5-Cl)]PE[dL]C[αMeS]LI; linker 7-C via X7), the IC50 was less than 10 nM.
`CC[C@H](C)[C@@H]1NC(=O)[C@H](CC(C)C)NC(=O)C2(CCOCC2)NC(=O)[C@@H](NC(=O)[C@@H](CC(C)C)NC(=O)[C@H](CCC(=O)O)NC(=O)[C@@H]2CCCN2C(=O)[C@H](Cc2c[nH]c3ccc(Cl)cc23)NC(=O)[C@H](Cc2c[nH]c3ccccc23)NC(=O)[C@H](CC(=O)O)NC(=O)CCC(=O)NCCCOCCOCCOCCCNC(=O)CN2CCN3CCN4CCN(CC2)CC(=O)[O][Lu]([O]C(=O)C3)[O]C(=O)C4)CSCc2cccc(c2)CSCCNC1=O` [GIP-158, LuDOTA-Ttds-Asp-Trp-5Clw-Pro-Glu-leu-[Cys(3MeBn)-Thp-Leu-Ile-AET]] ({X13-Suc}-DW[Trp(5-Cl)]PE[dL]C[Thp]LI; linker 7-C via X7) returned an IC50 of less than 10 nM.
`CC[C@H](C)[C@@H]1NC(=O)[C@H](CC(C)C)NC(=O)C(C)(C)NC(=O)[C@@H](NC(=O)[C@@H](CC(C)C)NC(=O)[C@H](CCC(=O)O)NC(=O)[C@@H]2C[C@@H](O)CN2C(=O)[C@H](Cc2c[nH]c3ccc(Cl)cc23)NC(=O)[C@H](Cc2c[nH]c3ccccc23)NC(=O)[C@H](CC(=O)O)NC(=O)CCC(=O)NCCCOCCOCCOCCCNC(=O)CN2CCN3CCN4CCN(CC2)CC(=O)[O][Lu]([O]C(=O)C3)[O]C(=O)C4)CSCc2cccc(c2)CSCCNC1=O` [GIP-159, LuDOTA-Ttds-Asp-Trp-5Clw-Hyp-Glu-leu-[Cys(3MeBn)-Aib-Leu-Ile-AET]] ({X13-Suc}-DW[Trp(5-Cl)][Hyp]E[dL]C[Aib]LI; linker 7-C via X7) showed an IC50 of less than 10 nM.
Consider `CC[C@H](C)[C@@H]1NC(=O)[C@H](CC(C)C)NC(=O)C(C)(C)NC(=O)[C@@H](NC(=O)[C@@H](CC(C)C)NC(=O)[C@H](CCC(=O)O)NC(=O)CN(C)C(=O)[C@H](Cc2c[nH]c3ccc(Cl)cc23)NC(=O)[C@H](Cc2c[nH]c3ccccc23)NC(=O)[C@H](CC(=O)O)NC(=O)CCC(=O)NCCCOCCOCCOCCCNC(=O)CN2CCN3CCN4CCN(CC2)CC(=O)[O][Lu]([O]C(=O)C3)[O]C(=O)C4)CSCc2cccc(c2)CSCCNC1=O` [GIP-160, LuDOTA-Ttds-Asp-Trp-5Clw-Nmg-Glu-leu-[Cys(3MeBn)-Aib-Leu-Ile-AET]] ({X13-Suc}-DW[Trp(5-Cl)][Sar]E[dL]C[Aib]LI; linker 7-C via X7), for which the IC50 was less than 10 nM.
For `CC[C@H](C)[C@@H]1NC(=O)[C@H](CC(C)C)NC(=O)C(C)(C)NC(=O)[C@@H](NC(=O)[C@@H](CC(C)C)NC(=O)[C@H](CCC(=O)O)NC(=O)[C@@H]2CCCN2C(=O)[C@H](Cc2c[nH]c3ccc(Cl)cc23)NC(=O)[C@H](Cc2c[nH]c3ccccc23)NC(=O)[C@H](CC(=O)O)NC(=O)CN2CCC(NC(=O)CN3CCN4CCN5CCN(CC3)CC(=O)[O][Lu]([O]C(=O)C4)[O]C(=O)C5)CC2)CSCc2cccc(c2)CSCCNC1=O` [GIP-161, LuDOTA-APAc-Asp-Trp-5Clw-Pro-Glu-leu-[Cys(3MeBn)-Aib-Leu-Ile-AET]] ({DOTA(Lu)}-[X1]DW[Trp(5-Cl)]PE[dL]C[Aib]LI; linker 8-C via X7), the IC50 was less than 10 nM.
Regarding `CC[C@H](C)[C@@H]1NC(=O)[C@H](CC(C)C)NC(=O)C2(CCOCC2)NC(=O)[C@@H](NC(=O)[C@@H](CC(C)C)NC(=O)[C@H](CCC(=O)O)NC(=O)[C@@H]2C[C@@H](O)CN2C(=O)[C@H](Cc2c[nH]c3ccc(Cl)cc23)NC(=O)[C@H](Cc2c[nH]c3ccccc23)NC(=O)[C@H](CC(=O)O)NC(=O)CN2CCC(NC(=O)CN3CCN4CCN5CCN(CC3)CC(=O)[O][Lu]([O]C(=O)C4)[O]C(=O)C5)CC2)CSCc2cccc(n2)CSCCNC1=O` [GIP-162, LuDOTA-APAc-Asp-Trp-5Clw-Hyp-Glu-leu-[Cys(2Lut)-Thp-Leu-Ile-AET]] ({DOTA(Lu)}-[X1]DW[Trp(5-Cl)][Hyp]E[dL]C[Thp]LI; linker 8-C via X6), the IC50 was less than 10 nM.
